# Laboratory results published in ChEMBL document CHEMBL1138606, “The discovery of tropane derivatives as nociceptin receptor ligands for the management of cough and anxiety” (Bioorg Med Chem Lett, 2009).
# Activity calls are given as the source filed them. The calls are words filed in the database; no cut-off is given here.
# Experiments:
# Cytochrome P450 2C9 [1] = biological target: T1, Cytochrome P450 2C9 (Homo sapiens, UniProt P11712); assay: Inhibition of CYP2C9 co-incubated with substrate; type: ADME
# Cavia porcellus [2] = assay: Antitussive activity against capsaicin-induced cough in po dosed Hartley guinea pig model after 2 hrs; type: functional
# Rattus norvegicus [3] = assay: Anxiolytic activity in po dosed CD rats assessed as suppression of conditioned paw licking administered twice per day for 14 days measured after 2 hrs of last dose; type: functional
# Cavia porcellus [4] = organism: Cavia porcellus; assay: Anxiolytic activity in Dunkin-Hartley guinea pig pup assessed as reduction in number of vocalization produced due to separation measured after 2 hrs; type: functional
# [5] = AUC (0 to 24 hrs) in rat at 3 mg/kg, po; type: ADME, organism-based; design: time < 24 hr, dose 3 mg/kg, route oral; settings: plasma
# [6] = Cmax in rat at 3 mg/kg, po; type: ADME, organism-based; design: dose 3 mg/kg, route oral; settings: in vivo
# [7] = Half life in rat at 3 mg/kg, po; type: ADME, organism-based; design: dose 3 mg/kg, route oral; settings: in vivo
# [8] = Oral bioavailability in rat at 3 mg/kg; type: ADME, organism-based; settings: in vivo
# [9] = Clearance in rat at 3 mg/kg, po; type: ADME, organism-based; design: dose 3 mg/kg, route oral; settings: in vivo
# Rattus norvegicus [10] = assay: Volume of distribution at steady state in rat at 3 mg/kg, po; type: ADME, organism-based; design: dose 3 mg/kg, route oral; settings: in vivo
# Cytochrome P450 2D6 = Cytochrome P450 2D6 (Homo sapiens, UniProt P10635); assay: Inhibition of CYP2D6; type: ADME
# Cytochrome P450 3A4 = Cytochrome P450 3A4 (Homo sapiens, UniProt P08684); assay: Inhibition of CYP3A4; type: ADME
# Cytochrome P450 2C9 [11] = biological target: T1, Cytochrome P450 2C9; assay: Inhibition of CYP2C9 pre-incubated before addition of substrate; type: ADME
# [12] = Clearance in human hepatocytes measured per 10^6 cells; type: ADME, cell-based, Liver, Hepatocyte
# Rattus norvegicus [13] = assay: Anxiolytic activity in po dosed CD rats assessed as suppression of conditioned paw licking administered twice per day for 14 days measured after 2 hrs of last dose in presence of […]; type: functional, organism-based
# T1 sequence (P11712 whole entry): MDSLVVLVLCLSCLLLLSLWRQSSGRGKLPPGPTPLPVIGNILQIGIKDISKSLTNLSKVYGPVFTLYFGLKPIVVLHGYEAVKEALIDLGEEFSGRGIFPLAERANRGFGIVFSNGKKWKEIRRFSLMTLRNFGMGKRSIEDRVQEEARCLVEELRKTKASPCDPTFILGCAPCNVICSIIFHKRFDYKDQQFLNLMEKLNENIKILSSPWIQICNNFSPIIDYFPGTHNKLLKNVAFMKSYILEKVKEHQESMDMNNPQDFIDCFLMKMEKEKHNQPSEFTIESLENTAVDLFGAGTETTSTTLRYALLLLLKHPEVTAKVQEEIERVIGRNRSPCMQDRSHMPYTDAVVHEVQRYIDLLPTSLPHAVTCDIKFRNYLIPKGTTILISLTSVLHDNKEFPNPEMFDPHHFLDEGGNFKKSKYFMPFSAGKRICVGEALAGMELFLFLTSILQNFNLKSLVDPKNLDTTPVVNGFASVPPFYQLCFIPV
# Cytochrome P450 3A4, sequence (P08684 whole entry): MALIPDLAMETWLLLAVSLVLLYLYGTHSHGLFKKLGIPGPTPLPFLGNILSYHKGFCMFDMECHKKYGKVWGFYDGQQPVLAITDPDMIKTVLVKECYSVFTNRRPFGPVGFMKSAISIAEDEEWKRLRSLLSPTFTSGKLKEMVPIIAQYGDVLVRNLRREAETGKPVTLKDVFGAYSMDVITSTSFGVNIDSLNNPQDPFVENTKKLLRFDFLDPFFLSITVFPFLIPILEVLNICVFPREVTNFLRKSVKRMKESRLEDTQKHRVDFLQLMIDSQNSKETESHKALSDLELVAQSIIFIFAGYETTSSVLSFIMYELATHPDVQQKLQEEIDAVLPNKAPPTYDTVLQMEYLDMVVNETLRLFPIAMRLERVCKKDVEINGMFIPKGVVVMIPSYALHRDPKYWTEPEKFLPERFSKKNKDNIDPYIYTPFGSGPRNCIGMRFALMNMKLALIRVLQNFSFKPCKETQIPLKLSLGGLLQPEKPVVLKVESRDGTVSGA
# Cytochrome P450 2D6, sequence (P10635 whole entry): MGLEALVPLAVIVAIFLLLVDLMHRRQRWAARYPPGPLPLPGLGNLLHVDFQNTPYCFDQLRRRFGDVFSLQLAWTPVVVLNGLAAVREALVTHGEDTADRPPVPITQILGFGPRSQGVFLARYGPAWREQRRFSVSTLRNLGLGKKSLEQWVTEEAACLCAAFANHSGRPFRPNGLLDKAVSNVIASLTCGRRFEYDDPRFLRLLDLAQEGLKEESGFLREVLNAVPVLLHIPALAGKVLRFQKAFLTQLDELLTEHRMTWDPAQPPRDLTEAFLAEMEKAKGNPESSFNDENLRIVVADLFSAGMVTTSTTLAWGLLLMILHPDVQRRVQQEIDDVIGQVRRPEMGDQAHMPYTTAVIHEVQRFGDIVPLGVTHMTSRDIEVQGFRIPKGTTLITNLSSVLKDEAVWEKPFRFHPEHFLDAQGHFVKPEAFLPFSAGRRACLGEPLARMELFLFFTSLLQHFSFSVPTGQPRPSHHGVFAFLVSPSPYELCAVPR
structure (smiles),measurement,setting,value
NC(=O)C1(c2ccccc2)CC2CCC(C1)N2C(c1ccccc1Cl)c1ccccc1Cl (stereo not given),IC50,Cytochrome P450 2C9 [1],8 µM
same,ED50,Cavia porcellus [2],0.3 mg/kg
same,ED50,Rattus norvegicus [3],1.4 mg/kg
same,ED50,Cavia porcellus [4],0.4 mg/kg
same,AUC(0-t) at 24 h,[5],0.54 µM·h
same,Cmax,[6],80 nM
same,half-life,[7],1.8 h
same,bioavailability,[8],37%
same,CL/F,[9],73 mL/min/kg
same,Vdss,Rattus norvegicus [10],9.1 L/kg
same,IC50,Cytochrome P450 2D6,> 30 µM
same,IC50,Cytochrome P450 3A4,> 30 µM
same,IC50,Cytochrome P450 2C9 [11],19 µM
same,hepatocyte CLint,[12],3 µL/min/1e6 cells
same,Activity,Rattus norvegicus [13],inactive
